Paper PMC8124163 (2021)

Columns and labels:
[1] = system: 22AG (DNA, G4) AGGGTTAGGGTTAGGGTTAGGG; experiment: photometric titration; details: K+ 110 mM; K-phosphate buffer, pH 7.0, 5% v/v DMSO; compound 20 µM
[2] = system: FmycT (DNA, G4) TGAGGGTGGGTAGGGTGGGTA; experiment: FRET melting (fluorescence); details: K+ 10 mM, Na+ 10 mM, Li+ 90 mM; cacodylate, pH 7.0; ligand:DNA ratio 5; DNA 0.2 µM (Figure S6; Table 2 prints 0.2 mM); error ±0.5 °C
[3] = system: c-kit (DNA, G4) AGGGAGGGCGCTGGGAGGAGGG; experiment: photometric titration; details: K+ 110 mM; K-phosphate buffer, pH 7.0, 5% v/v DMSO; compound 20 µM
[4] = system: a2 (DNA, G4) ACAGGGGTGTGGGGACAGGGGTGTGGGG; experiment: photometric titration; details: K+ 110 mM; K-phosphate buffer, pH 7.0, 5% v/v DMSO; compound 20 µM
[5] = system: c-myc (DNA, G4) TGAGGGTGGGTAGGGTGGGTA; experiment: photometric titration; details: K+ 110 mM; K-phosphate buffer, pH 7.0, 5% v/v DMSO; compound 20 µM
[6] = system: FkitT (DNA, G4) AGGGAGGGCGCTGGGAGGAGGG; experiment: FRET melting (fluorescence); details: K+ 10 mM, Na+ 10 mM, Li+ 90 mM; cacodylate, pH 7.0; ligand:DNA ratio 5; DNA 0.2 µM (Figure S6; Table 2 prints 0.2 mM); error ±0.5 °C

Q: How did the Kb [1] turn out when `COc1ccc2cc3[n+](cc2c1OP(=O)(O)O)CCc1cc2c(cc1-3)OCO2` was run?
A: Its Kb is 5.0 ± 0.6 × 10^5 M^-1.

Q: And the “∆Tm” value [2]?
A: Its value is 2.2 °C.

Q: What about the Kb [3] of the same molecule?
A: The Kb was 6.9 ± 0.2 × 10^5 M^-1.

Q: And the Kb [4]?
A: Its Kb is 6.7 ± 0.2 × 10^5 M^-1.

Q: What about the Kb [5] of the same molecule?
A: Its Kb is 5.9 ± 0.4 × 10^5 M^-1.

Q: What about the “∆Tm” value [6] of the same molecule?
A: The value was 1.0 °C.
